The target of the experiment is T1, Cholesteryl ester transfer protein (Homo sapiens, UniProt P11597).
T1 sequence (P11597 whole entry): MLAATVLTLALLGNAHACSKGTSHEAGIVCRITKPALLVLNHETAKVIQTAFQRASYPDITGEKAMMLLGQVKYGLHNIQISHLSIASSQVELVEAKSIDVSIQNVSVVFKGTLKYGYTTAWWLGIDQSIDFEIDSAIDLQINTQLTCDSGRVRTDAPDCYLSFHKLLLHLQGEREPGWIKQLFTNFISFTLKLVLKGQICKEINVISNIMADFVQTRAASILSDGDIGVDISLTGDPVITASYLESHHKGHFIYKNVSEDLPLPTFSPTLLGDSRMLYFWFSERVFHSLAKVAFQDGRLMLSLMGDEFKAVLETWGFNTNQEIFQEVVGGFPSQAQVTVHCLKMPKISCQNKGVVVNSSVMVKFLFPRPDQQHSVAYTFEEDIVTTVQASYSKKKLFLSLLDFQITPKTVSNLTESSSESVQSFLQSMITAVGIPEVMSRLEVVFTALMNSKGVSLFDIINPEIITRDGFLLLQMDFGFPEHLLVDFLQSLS
The experiment can be described thus: CETP Inhibition Assay: A recombinant human CETP protein (manufactured by Roar Biomedical Inc.; 4.5 ng), the acceptor lipoprotein described in (2) above (32.5 ug) and 5,5'-dithio-bis-(2-nitrobenzoic acid) (7 mM, 15 ul) were taken in a 96 well plate and the total amount of the mixture was adjusted to 48.5 ul with the PBS solution. The test compound [DMSO solution (concentration: 0.15, 0.5, 1.5, 5, 15, 50, 150 and 500 uM; 1.5 ul] was added to each well and the mixture was incubated in a thermostatic bath at 37° C. for 60 minutes. The reconstituted HDL (50 ul) described in (1) above was added to each well and the mixture was reacted in a thermostatic bath at 37° C. for 60 minutes. The 96 well plate was moved onto ice and a precipitation reagent [a mixed solution of magnesium chloride (60 mM) and 0.1% dextran sulfate [1/1 (v/v)]; 15 ul] was added to each well, and then the mixture was allowed to stand on ice for 15 minutes.
Take `CC1(C)Cc2nc(C3CCN(c4ncc(OCCO)cn4)CC3)c([C@@H](F)c3ccc(C(F)(F)F)cc3)c(C3CCC(F)(F)CC3)c2[C@@H](O)C1`: the IC50 was 37 nM.
`CC1(C)Cc2nc(C3CCN(c4ncc(N5CCS(=O)(=O)CC5)cn4)CC3)c([C@@H](F)c3ccc(C(F)(F)F)cc3)c(C3CCC(F)(F)CC3)c2[C@@H](O)C1`: the IC50 was 49 nM.
Then `CCOc1cnc(N2CCC(c3nc4c(c(C5CCC(F)(F)CC5)c3[C@@H](F)c3ccc(C(F)(F)F)cc3)[C@@H](O)CC(C)(C)C4)CC2)nc1` (single isomer, unassigned), with 92 nM; and `CC1(C)Cc2nc(C3CCN(c4ncc(Br)cn4)CC3)c([C@@H](F)c3ccc(C(F)(F)F)cc3)c(C3CCC(F)(F)CC3)c2[C@@H](O)C1` (single isomer, unassigned), with 150 nM.

(Values after ChEMBL document CHEMBL3886367, “Substituted pyridine compound” (2015).)
